For data set [1], the system named is Toxoplasma gondii adenosine kinase. The settings on record: cited from earlier work.
The test system of data set [2] is wild type (RH) strain of T. gondii. In words: Anti-toxoplasmic activity in tissue culture. Type of data set: cell-based, Toxoplasma gondii. The settings on record: wild type (RH) in human fibroblasts.
In data set [3] the test system is adenosine kinase deficient (TgAK^-3) strain of T. gondii. In words: Anti-toxoplasmic activity in tissue culture. Type of data set: cell-based, Toxoplasma gondii. The settings on record: TgAK^-3 in human fibroblasts.
Data set [4] has as its system uninfected human foreskin fibroblasts. In words: Host toxicity, MTT assay on uninfected host cells. The settings on record: infection: None. (In general: Tetrazolium assays rely on reduction of a dye to a coloured formazan, in cell work by metabolically active cells.)

Consider “6-Benzylthioinosine [Compound 22, reference compound]”, for which, in data set [1] (read-out: Km (binding affinity), apparent Km equal to apparent Ki), the Km was 14.3 µM. The “percent survival of parasite” value amounted to 92.7% in data set [2] (5 μM compound); 45.8% in data set [2] (10 μM compound); 7.6% in data set [2] (25 μM compound); 0.0% in data set [2] (50 μM compound); 100% in data set [3] (5 μM compound); 100% in data set [3] (10 μM compound). Besides, the “percent survival of parasite” value in data set [3] (25 μM compound) and in data set [3] (50 μM compound) was 100% each time.

In the case of 7-deaza-6-(p-methylbenzylthio)inosines, the “increase of relative binding affinity by inclusion of the 7-deaza motif” value in data set [1] (relative to 6-(p-methylbenzylthio)inosine) was 2.8 fold.

`COC(=O)c1ccc(CSc2ncnc3c2ncn3C2CC(CO)C(O)C2O)cc1` (stereo not shown) [Compound 14, Carbocyclic 6-(p-methoxycarbonylbenzylthio)inosine]: the “host-toxicity (survival of uninfected host cells)” value (shortened to “host-toxicity”) worked out at 100% in data set [4] (5 μM compound), 99.4% in data set [4] (10 μM compound), 88.7% in data set [4] (25 μM compound) and 87.1% in data set [4] (50 μM compound). Also, the “percent survival of parasite” value in data set [2] (5 μM compound) came out at 53.9%; in data set [2] (10 μM compound), 6.3%; in data set [2] (25 μM compound), 1.5%; in data set [2] (50 μM compound) it was 0.0%; in data set [3] (5 μM compound) it was 100%; in data set [3] (10 μM compound), 100%. In addition, the “percent survival of parasite” value in data set [3] (25 μM compound) and in data set [3] (50 μM compound) was 100% throughout.

As for `COc1ccc(CSc2ncnc3c2ncn3C2CC(CO)C(O)C2O)cc1` (stereo not shown) [Compound 15, Carbocyclic 6-(p-methoxybenzylthio)inosine], the “host-toxicity” value is 100% in data set [4] (5 μM compound), 100% in data set [4] (10 μM compound), 94.3% in data set [4] (25 μM compound) and 82.1% in data set [4] (50 μM compound). Also, the “percent survival of parasite” value in data set [2] (5 μM compound) was 48.3%; in data set [2] (10 μM compound) it was 1.9%; in data set [2] (25 μM compound), 0.0%; in data set [2] (50 μM compound), 0.0%; in data set [3] (5 μM compound) it was 98.4%; in data set [3] (10 μM compound) it was 100%. In addition, the “percent survival of parasite” value in data set [3] (25 μM compound) and in data set [3] (50 μM compound) was 100% throughout.

On to `OCC1CC(n2cnc3c(SCc4ccc(OC(F)(F)F)cc4)ncnc32)C(O)C1O` (stereo not shown) [Compound 16, Carbocyclic 6-(p-trifluoromethoxybenzylthio)inosine], for which the “host-toxicity” value in data set [4] (5 μM compound) is recorded as 100%; in data set [4] (10 μM compound), 98.2%; in data set [4] (25 μM compound), 96.7%; in data set [4] (50 μM compound) it was 89.3%. The “percent survival of parasite” value is 87.3% in data set [2] (5 μM compound); 53.6% in data set [2] (10 μM compound); 8.1% in data set [2] (25 μM compound); 0.0% in data set [2] (50 μM compound); 100% in data set [3] (5 μM compound); 100% in data set [3] (10 μM compound). In addition, the “percent survival of parasite” value in data set [3] (25 μM compound) and in data set [3] (50 μM compound) was 100% throughout.

As to `CS(=O)(=O)c1ccc(CSc2ncnc3c2ncn3C2CC(CO)C(O)C2O)cc1` (stereo not shown) [Compound 17, Carbocyclic 6-(p-methylsulfonylbenzylthio)inosine], the “host-toxicity” value in data set [4] (5 μM compound), in data set [4] (10 μM compound), in data set [4] (25 μM compound) and in data set [4] (50 μM compound) was 100% each time. For the same compound, the “percent survival of parasite” value in data set [2] (5 μM compound) came to 66.8%; in data set [2] (10 μM compound), 21.2%; in data set [2] (25 μM compound) it was 0.0%; in data set [2] (50 μM compound) it was 0.0%; in data set [3] (5 μM compound) it was 100%; in data set [3] (10 μM compound) it was 100%. In addition, the “percent survival of parasite” value in data set [3] (25 μM compound) and in data set [3] (50 μM compound) was 100% throughout.

As for `OCC1CC(n2cnc3c(SCc4ccc(Cl)cc4Cl)ncnc32)C(O)C1O` (stereo not shown) [Compound 18, Carbocyclic 6-(o,p-dichlorobenzylthio)inosine], the “host-toxicity” value worked out at 100% in data set [4] (5 μM compound), 100% in data set [4] (10 μM compound), 100% in data set [4] (25 μM compound) and 90.6% in data set [4] (50 μM compound). The “percent survival of parasite” value is given as 84.4% in data set [2] (5 μM compound); 45.1% in data set [2] (10 μM compound); 0.0% in data set [2] (25 μM compound); 0.0% in data set [2] (50 μM compound); 100% in data set [3] (5 μM compound); 100% in data set [3] (10 μM compound). The “percent survival of parasite” value in data set [3] (25 μM compound) and in data set [3] (50 μM compound) was 100% each time.

Take `OCC1CC(n2cnc3c(SCc4ccc(Cl)c(Cl)c4)ncnc32)C(O)C1O` (stereo not shown) [Compound 19, Carbocyclic 6-(m,p-dichlorobenzylthio)inosine]: the “host-toxicity” value in data set [4] (5 μM compound) came out at 100%; in data set [4] (10 μM compound), 100%; in data set [4] (25 μM compound) it was 100%; in data set [4] (50 μM compound), 73.1%. The “percent survival of parasite” value in data set [2] (5 μM compound) is 59.7%; in data set [2] (10 μM compound), 17.8%; in data set [2] (25 μM compound), 8.3%; in data set [2] (50 μM compound), 1.5%; in data set [3] (5 μM compound) it was 100%; in data set [3] (10 μM compound) it was 100%. Also, the “percent survival of parasite” value in data set [3] (25 μM compound) and in data set [3] (50 μM compound) was 100% each time.

As to `OCC1CC(n2cnc3c(SCc4c(F)cccc4Cl)ncnc32)C(O)C1O` (stereo not shown) [Compound 20, Carbocyclic 6-(o-chloro-o-fluorobenzylthio)inosine], the “host-toxicity” value in data set [4] (5 μM compound), in data set [4] (10 μM compound), in data set [4] (25 μM compound) and in data set [4] (50 μM compound) was 100% each time. Moreover, the “percent survival of parasite” value in data set [2] (5 μM compound) is 56.3%; in data set [2] (10 μM compound) it was 15.6%; in data set [2] (25 μM compound) it was 3.7%; in data set [2] (50 μM compound) it was 0.0%; in data set [3] (5 μM compound) it was 100%; in data set [3] (10 μM compound), 100%. In addition, the “percent survival of parasite” value in data set [3] (25 μM compound) and in data set [3] (50 μM compound) was 100% in each case.

In the case of `Cc1ccc(CSc2ncnc3c2ncn3C2CC(CO)C(O)C2O)c(C)c1C` (stereo not shown) [Compound 21, Carbocyclic 6-(o,m,p-trimethylbenzylthio)inosine], the “host-toxicity” value was found to be 100% in data set [4] (5 μM compound), 100% in data set [4] (10 μM compound), 90.6% in data set [4] (25 μM compound) and 93.2% in data set [4] (50 μM compound). For the same compound, the “percent survival of parasite” value in data set [2] (5 μM compound) is 71.0%; in data set [2] (10 μM compound), 32.7%; in data set [2] (25 μM compound) it was 0.0%; in data set [2] (50 μM compound), 0.0%; in data set [3] (5 μM compound) it was 100%; in data set [3] (10 μM compound), 100%. Besides, the “percent survival of parasite” value in data set [3] (25 μM compound) and in data set [3] (50 μM compound) was 100% in each case.

One may read the Km as the concentration of substrate that gives half-maximal velocity.

Values taken from paper PMC2923275 (Biochemical pharmacology, 2010).
